Experimental data taken from patent publication US10738028B2, “Spiro three-membered ring, spiro five-membered ring peptide deformylase inhibitor and use thereof in antibacteria and anti-tumor” (priority 2016, dated 2020).

Experiments:
Assay type in all cases: cell-based
[1] = tested on: methicillin-sensitive Staphylococcus aureus (MSSA); assay: MIC, two-fold agar dilution (CLSI), clinical isolates
In short: (§1)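 MIC values come from two-fold agar dilution run per CLSI antimicrobial susceptibility testing procedure.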

[2] = tested on: methicillin-resistant Staphylococcus epidermidis (MRSE); assay: as above
In short: as §1

[3] = tested on: Enterococcus faecium (EFM); assay: as above
In short: as §1

[4] = tested on: methicillin-resistant Staphylococcus aureus (MRSA); assay: as above
In short: as §1

[5] = tested on: Escherichia coli (including ESBLs, non-ESBLs); assay: as above
In short: as §1

[6] = tested on: methicillin-sensitive Staphylococcus epidermidis (MSSE); assay: as above
In short: as §1

[7] = tested on: Streptococcus pneoumoniae (SPN); assay: as above
In short: as §1

[8] = tested on: Moraxella catarrhalis (BCA); assay: as above
In short: as §1

[9] = tested on: Enterococcus faecalis (EFA); assay: as above
In short: as §1

[10] = tested on: HCT-116 colorectal cancer cell line; assay: CCK-8 proliferation inhibition; details: Homo sapiens, HCT-116, 72 h, concentration of 30 μM; 72 hours; CCK-8; read-out: HCT116 inhibition rate/%
In short: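 Cells seeded at 2000 cells/well, cultured overnight at 37 °C, 5% CO2, then exposed to compound (DMSO; control 1‰ DMSO) for 72 h in McCoy's 5A with 10% newborn bovine serum. Viability read with 1:10 diluted CCK-8.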

CCCC[C@H](CC(=O)NO)C(=O)N1CC2(CC2)C[C@H]1C(=O)Nc1cccnn1 [Example 48, (S)-5-((R)-2-(2-(hydroxyamino)-2-oxoethyl)hexanoyl)-N-(pyridazin-3-yl)-5-azaspiro[2.4]heptane-6-amide]
8 µg/mL: Anti-bacterial activity (MIC), strain MSSA 15-3 ([1]; clinical isolate MSSA 15-3) | Anti-bacterial activity (MIC), strain MSSA 15-4 ([1]; clinical isolate MSSA 15-4) | Anti-bacterial activity (MIC), strain MSSA 15-5 ([1]; clinical isolate MSSA 15-5) | Anti-bacterial activity (MIC), strain MRSE 15-1 ([2]; clinical isolate MRSE 15-1) | Anti-bacterial activity (MIC), strain MRSE 15-2 ([2]; clinical isolate MRSE 15-2) | Anti-bacterial activity (MIC), strain MRSE 15-3 ([2]; clinical isolate MRSE 15-3) | Anti-bacterial activity (MIC), strain MRSE 15-7 ([2]; clinical isolate MRSE 15-7) | Anti-bacterial activity (MIC), strain EFM 15-6 ([3]; clinical isolate EFM 15-6) | Anti-bacterial activity (MIC), strain MRSA 15-2 ([4]; clinical isolate MRSA 15-2) | Anti-bacterial activity (MIC), strain MRSA 15-4 ([4]; clinical isolate MRSA 15-4) | Anti-bacterial activity (MIC), strain ECO+ 15-1 ([5]; clinical isolate ECO+ 15-1) | Anti-bacterial activity (MIC), strain MSSE 15-3 ([6]; clinical isolate MSSE 15-3) | Anti-bacterial activity (MIC), strain MSSE 15-5 ([6]; clinical isolate MSSE 15-5) | Anti-bacterial activity (MIC), strain MSSE 15-6 ([6]; clinical isolate MSSE 15-6) | Anti-bacterial activity (MIC), strain SPN 16-2 ([7]; clinical isolate SPN 16-2) | Anti-bacterial activity (MIC), strain SPN 16-4 ([7]; clinical isolate SPN 16-4) | Anti-bacterial activity (MIC), strain BCA 14-5 ([8]; clinical isolate BCA 14-5)
32 µg/mL: Anti-bacterial activity (MIC), strain ECO+ 15-3 ([5]; clinical isolate ECO+ 15-3) | Anti-bacterial activity (MIC), strain ECO+ 15-4 ([5]; clinical isolate ECO+ 15-4) | Anti-bacterial activity (MIC), strain MSSE 15-4 ([6]; clinical isolate MSSE 15-4) | Anti-bacterial activity (MIC), strain EFA 15-9 ([9]; clinical isolate EFA 15-9)
> 32 µg/mL: Anti-bacterial activity (MIC), strain MSSA 15-6 ([1]; clinical isolate MSSA 15-6) | Anti-bacterial activity (MIC), strain EFM 15-1 ([3]; clinical isolate EFM 15-1) | Anti-bacterial activity (MIC), strain EFM 15-2 ([3]; clinical isolate EFM 15-2) | Anti-bacterial activity (MIC), strain EFM 15-3 ([3]; clinical isolate EFM 15-3) | Anti-bacterial activity (MIC), strain EFM 15-4 ([3]; clinical isolate EFM 15-4) | Anti-bacterial activity (MIC), strain ECO+ 15-2 ([5]; clinical isolate ECO+ 15-2) | Anti-bacterial activity (MIC), strain ECO− 15-1 ([5]; clinical isolate ECO− 15-1) | Anti-bacterial activity (MIC), strain ECO− 15-2 ([5]; clinical isolate ECO− 15-2) | Anti-bacterial activity (MIC), strain ECO− 15-3 ([5]; clinical isolate ECO− 15-3) | Anti-bacterial activity (MIC), strain ECO− 15-4 ([5]; clinical isolate ECO− 15-4) | Anti-bacterial activity (MIC), strain BCA 14-1 ([8]; clinical isolate BCA 14-1) | Anti-bacterial activity (MIC), strain BCA 14-4 ([8]; clinical isolate BCA 14-4) | Anti-bacterial activity (MIC), strain BCA 14-6 ([8]; clinical isolate BCA 14-6) | Anti-bacterial activity (MIC), strain BCA 14-10 ([8]; clinical isolate BCA 14-10) | Anti-bacterial activity (MIC), strain EFA 15-1 ([9]; clinical isolate EFA 15-1) | Anti-bacterial activity (MIC), strain EFA 15-2 ([9]; clinical isolate EFA 15-2) | Anti-bacterial activity (MIC), strain EFA 15-3 ([9]; clinical isolate EFA 15-3) | Anti-bacterial activity (MIC), strain EFA 15-4 ([9]; clinical isolate EFA 15-4) | Anti-bacterial activity (MIC), strain EFA 15-5 ([9]; clinical isolate EFA 15-5) | Anti-bacterial activity (MIC), strain EFA 15-6 ([9]; clinical isolate EFA 15-6)
16 µg/mL: Anti-bacterial activity (MIC), strain BCA 14-7 ([8]; clinical isolate BCA 14-7) | Anti-bacterial activity (MIC), strain BCA 14-8 ([8]; clinical isolate BCA 14-8)
2 µg/mL: Anti-bacterial activity (MIC), strain MRSA 15-1 ([4]; clinical isolate MRSA 15-1) | Anti-bacterial activity (MIC), strain MRSA 15-3 ([4]; clinical isolate MRSA 15-3)
1 µg/mL: Anti-bacterial activity (MIC), strain EFM 15-5 ([3]; clinical isolate EFM 15-5)
20%: inhibition at 30 µM [10]
